According to ChEMBL document CHEMBL5625204, “Synthesis and pharmacodynamic evaluation of naphthalene derivatives against influenza A virus in vitro and in vivo” (Eur J Med Chem, 2023):
pEC50: −log10 of the molar value. Calls of active or inactive are those of the source. The rule behind the calls is not given here.

Legend:
[1] = test system: Influenza A virus; test: Inhibition of Influenza A virus replication infected in dog MDCK cells assessed as downregulation of virus NP gene expression at 25 to 50 uM measured after 24 to 72 hrs post-infection by qRT-PCR analysis; assay type: functional, organism-based; conditions: dose 25-50 µM
[2] = test system: Erythrocyte; test: Inhibition of Hemagglutinin2 in Influenza A virus assessed as inhibition of virus-induced hemolysis at 7.81 to 250 uM pretreated with virus for 30 mins followed by chicken RBC addition and measured after 30 mins; assay type: cell-based; conditions: dose 7.81-250 µM, time 60.0 min
[3] = test system: Erythrocyte; test: Inhibition of Hemagglutinin1 in Influenza A virus assessed as inhibition of virus-induced hemagglutination at 7.81 to 250 uM pretreated with virus for 30 mins followed by chicken RBC addition and measured after 1 hr; assay type: cell-based; conditions: dose 7.81-250 µM, time 90.0 min
[4] = test system: Influenza A virus; test: Inhibition of Influenza A virus Neuraminidase at 100 to 300 uM pretreated with enzyme for 5 mins followed by fluorogenic substrate addition and measured for 1 hr by fluorescence based analysis; conditions: dose 100-300 µM, time 65.0 min
[5] = test system: Influenza A virus; test: Antiviral activity against Influenza A virus H1N1 (A/Weiss/43) infected in MDCK cells assessed as reduction of viral replication at 50 uM treated for 2 to 4 hrs after viral infection and measured after 72 hrs by MTT method; assay type: functional, organism-based; conditions: time 74-76 hrs
[6] = Selectivity index, ratio of CC50 for dog MDCK cells to EC50 for antiviral activity against Influenza A virus H1N1 (A/Weiss/43) infected in MDCK cells treated for 2 hrs before viral infection and measured after 72 hrs; assay type: toxicity, cell-based; conditions: read-out: Ratio CC50/EC50
[7] = test system: Influenza A virus; test: Antiviral activity against Influenza A virus H1N1 (A/Weiss/43) infected in MDCK cells assessed as reduction of viral replication treated for 2 hrs before viral infection and measured after 72 hrs by TCID50 method; assay type: functional, organism-based
[8] = test system: Influenza A virus; test: Antiviral activity against Influenza A virus H1N1 (A/Weiss/43)-infected in BALB/c mouse assessed as reduction in viral NP protein expression in lungs at 25 to 100 mg/kg/day administered intranasally for 6 days starting from 3 hrs post-viral infection by immunohistochemistry; assay type: functional, organism-based; conditions: dose 25-100 mg/kg/day, route nas, time 6.0 day
[9] = test system: MDCK; test: Cytotoxicity against dog MDCK cells assessed as cell pathological changes at 50 uM by microscopic analysis; assay type: toxicity, cell-based, Canis lupus familiaris
[10] = Selectivity index, ratio of CC50 for dog MDCK cells to EC50 for antiviral activity against Influenza A virus H3N2 (A/California/2004) infected in MDCK cells; assay type: toxicity, cell-based; conditions: read-out: Ratio CC50/EC50
[11] = test system: Influenza A virus; test: Inhibition of Influenza A virus replication infected in human A549 cells assessed as downregulation of virus NP protein expression at 25 to 50 uM measured after 24 hrs by western blot analysis; assay type: functional, organism-based; conditions: dose 25-50 µM
[12] = test system: Influenza A virus; test: Antiviral activity against Influenza A virus H1N1 (A/Weiss/43)-infected in dog MDCK cells assessed as reduction in oxidative stress by measuring proportion of normal cells at 50 uM treated at 2 hrs post-infection and measured after 36 hrs by DCFH-DA staining based flow cytometry (reference value: 69.4%); assay type: functional; parameters: scale not given: the % may be the effect or the level left
[13] = test system: Influenza A virus; test: Antiviral activity against Influenza A virus H1N1 (A/Weiss/43)-infected in dog MDCK cells assessed as reduction in oxidative stress by measuring proportion of cells with excessive ROS accumulation at 50 uM treated at 2 hrs post-infection and measured after 36 hrs by DCFH-DA staining based flow cytometry (reference value: 30.6%); assay type: functional; parameters: scale not given: the % may be the effect or the level left
[14] = Toxicity in dog MDCK cells assessed as ROS production by measuring proportion of cells with excessive ROS accumulation at 50 uM measured after 36 hrs by DCFH-DA staining based flow cytometry (reference value: 0.094%); assay type: cell-based, Canis lupus familiaris
[15] = test system: Influenza A virus; test: Antiviral activity against Influenza A virus H1N1 infected in human A549 cells assessed as decrease in apoptosis by measuring decrease in Bax to Bcl-2 ratio at 25 to 50 uM measured after 24 hrs by western blot analysis; assay type: functional, organism-based; conditions: dose 25-50 µM
[16] = test system: Influenza A virus; test: Antiviral activity against Influenza A virus H1N1 infected in dog MDCK cells assessed as decrease in apoptosis by measuring proportion of early apoptotic cells at 25 uM measured after 72 hrs by AnnexinV-FITC/PI staining based flow cytometry (reference value: 24.3%); assay type: functional; parameters: scale not given: the % may be the effect or the level left
[17] = test system: Influenza A virus; test: Antiviral activity against Influenza A virus H1N1 infected in dog MDCK cells assessed as decrease in apoptosis by measuring proportion of late apoptotic cells at 50 uM measured after 72 hrs by AnnexinV-FITC/PI staining based flow cytometry (reference value: 10.3%); assay type: functional; parameters: scale not given: the % may be the effect or the level left
[18] = Toxicity in dog MDCK cells assessed as proportion of early apoptotic cells at 50 uM measured after 72 hrs by AnnexinV-FITC/PI staining based flow cytometry (reference value: 4.51%); assay type: cell-based, Canis lupus familiaris
[19] = test system: Influenza A virus; test: Antiviral activity against Influenza A virus H1N1 infected in human A549 cells assessed as decrease in apoptosis by measuring decrease in cleaved PARP protein expression at 25 to 50 uM measured after 24 hrs by western blot analysis; assay type: functional, organism-based; conditions: dose 25-50 µM
[20] = test system: Influenza A virus; test: Antiviral activity against Influenza A virus H1N1 infected in human A549 cells assessed as decrease in apoptosis by measuring decrease in cleaved caspase-9 protein expression at 25 to 50 uM measured after 24 hrs by western blot analysis; assay type: functional, organism-based; conditions: dose 25-50 µM
[21] = test system: Influenza A virus; test: Antiviral activity against Influenza A virus H1N1 infected in human A549 cells assessed as decrease in RIG-1 pathway related gene expression by measuring decrease in MAVS gene expression at 25 to 50 uM measured after 24 hrs by qRT-PCR analysis; assay type: functional, organism-based; conditions: dose 25-50 µM
[22] = test system: Influenza A virus; test: Antiviral activity against Influenza A virus H1N1 infected in human A549 cells assessed as decrease in RIG-1 pathway related gene expression by measuring decrease in IRF3 gene expression at 25 to 50 uM measured after 24 hrs by qRT-PCR analysis; assay type: functional, organism-based; conditions: dose 25-50 µM
[23] = test system: Influenza A virus; test: Antiviral activity against Influenza A virus H1N1 infected in human A549 cells assessed as decrease in RIG-1 pathway related gene expression by measuring decrease in IRF7 gene expression at 25 to 50 uM measured after 24 hrs by qRT-PCR analysis; assay type: functional, organism-based; conditions: dose 25-50 µM
[24] = test system: Influenza A virus; test: Antiviral activity against Influenza A virus H1N1 infected in human A549 cells assessed as decrease in apoptosis inducing factor gene expression by measuring decrease in TRAIL gene expression at 25 to 50 uM measured after 24 hrs by qRT-PCR analysis; assay type: functional, organism-based; conditions: dose 25-50 µM
[25] = test system: Influenza A virus; test: Antiviral activity against Influenza A virus H1N1 infected in human A549 cells assessed as decrease in cytokine gene expression by measuring decrease in IL-8 gene expression at 25 to 50 uM measured after 24 hrs by qRT-PCR analysis; assay type: functional, organism-based; conditions: dose 25-50 µM
[26] = test system: Influenza A virus; test: Antiviral activity against Influenza A virus H1N1 infected in human A549 cells assessed as decrease in cytokine gene expression by measuring decrease in IP-10 gene expression at 25 to 50 uM measured after 24 hrs by qRT-PCR analysis; assay type: functional, organism-based; conditions: dose 25-50 µM
[27] = test system: Influenza A virus; test: Antiviral activity against Influenza A virus H1N1 (A/Weiss/43)-infected in BALB/c mouse assessed as reduction in IL-8 gene expression in lungs at 25 to 100 mg/kg/day administered intranasally for 6 days starting from 3 hrs post-viral infection by qRT-PCR analysis; assay type: functional, organism-based; conditions: dose 25-100 mg/kg/day, route nas, time 6.0 day

O=[N+]([O-])c1ccc(S(=O)(=O)N(Cc2ccccc2)c2cccc3ccccc23)cc1
inhibition [1]: Active
inhibition [2]: inactive
inhibition [3]: inactive
inhibition [4]: inactive
Activity [5]: Active
selectivity ratio at 72 h [6]: > 105
pEC50 [7]: 5.12
Activity [8]: Active
Activity [9]: Non-Toxic
selectivity ratio [10]: > 121
inhibition [11]: Active
Activity [12]: 95.3%
Activity [13]: 4.66%
Activity [14]: 1.36%
inhibition [15]: Active
Activity [16]: 2.55%
Activity [17]: 1.09%
Activity [18]: 1.56%
inhibition [19]: Active
inhibition [20]: Active
inhibition [21]: Active
inhibition [22]: Active
inhibition [23]: Active
inhibition [24]: Active
inhibition [25]: Active
inhibition [26]: Active
Activity [27]: Active
